System: 945468-187-T-J2-PDC spheroids viability
Test: Anticancer human tumor 945468-187-T-J2-PDC patient-derived rectal carcinoma cell line growth inhibition [PI3K]
Conditions: spheroids with HUVEC and MSC; for IC50: curve of first compound; for viability, T/C: stronger effect = lower value
How it was run: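 Tumor cells were combined with HUVEC and MSCs into spheroids, then dosed with PI3K-inhibitor combinations over half-log ranges capped near clinical Cmax or 10 microM.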

[1] = second compound 0.00316 µM, first compound 0.0316 µM
[2] = second compound 0.00316 µM, first compound 0.1 µM
[3] = second compound 0.00316 µM, first compound 0.316 µM
[4] = second compound 0.00316 µM, first compound 1 µM
[5] = second compound 0.00316 µM, first compound 3.16 µM
[6] = second compound 0.00316 µM, first compound 10 µM
[7] = second compound 0.01 µM, first compound 0.0316 µM
[8] = second compound 0.01 µM, first compound 0.1 µM
[9] = second compound 0.01 µM, first compound 0.316 µM
[10] = second compound 0.01 µM, first compound 1 µM
[11] = second compound 0.01 µM, first compound 3.16 µM
[12] = second compound 0.01 µM, first compound 10 µM
[13] = second compound 0.0316 µM, first compound 0.0316 µM
[14] = second compound 0.0316 µM, first compound 0.1 µM
[15] = second compound 0.0316 µM, first compound 0.316 µM
[16] = second compound 0.0316 µM, first compound 1 µM
[17] = second compound 0.0316 µM, first compound 3.16 µM
[18] = second compound 0.0316 µM, first compound 10 µM
[19] = second compound 0.1 µM, first compound 0.0316 µM
[20] = second compound 0.1 µM, first compound 0.1 µM
[21] = second compound 0.1 µM, first compound 0.316 µM
[22] = second compound 0.1 µM, first compound 1 µM
[23] = second compound 0.1 µM, first compound 3.16 µM
[24] = second compound 0.1 µM, first compound 10 µM
[25] = second compound 0.316 µM, first compound 0.0316 µM
[26] = second compound 0.316 µM, first compound 0.1 µM
[27] = second compound 0.316 µM, first compound 0.316 µM
[28] = second compound 0.316 µM, first compound 1 µM
[29] = second compound 0.316 µM, first compound 3.16 µM
[30] = second compound 0.316 µM, first compound 10 µM
[31] = second compound 1 µM, first compound 0.0316 µM
[32] = second compound 1 µM, first compound 0.1 µM
[33] = second compound 1 µM, first compound 0.316 µM
[34] = second compound 1 µM, first compound 1 µM
[35] = second compound 1 µM, first compound 3.16 µM
[36] = second compound 1 µM, first compound 10 µM
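Further: spheroids exposed to compounds for seven days before reading.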

For `C=CC(=O)N1CCN(c2nc(=O)n(-c3c(C)ccnc3C(C)C)c3nc(-c4c(O)cccc4F)c(F)cc23)C(C)C1` (centres undefined) + COc1c(OCCCN2CCOCC2)ccc2c3n(c(=NC(=O)c4cnc(N)nc4)nc12)CCN3, the IC50 (second compound 0.00316 µM) was > 10 µM, the IC50 (second compound 0.01 µM) was > 10 µM and the IC50 (second compound 0.0316 µM) was > 10 µM. The IC50 (second compound 0.1 µM) was > 10 µM, the IC50 (second compound 0.316 µM) was < 0.0316 µM and the IC50 (second compound 1 µM) was < 0.0316 µM. For the same compound, the viability, T/C [1] was 92.6%, the viability, T/C [2] was 99.4% and the viability, T/C [3] was 107%. It also gave a viability, T/C [4] of 98.4%, a viability, T/C [5] of 103% and a viability, T/C [6] of 120%. The viability, T/C [7] was 94.6%, the viability, T/C [8] was 100% and the viability, T/C [9] was 82.8%. For the same compound, the viability, T/C [10] was 96.1%, the viability, T/C [11] was 98% and the viability, T/C [12] was 117%. The viability, T/C [13] was 90.6%, the viability, T/C [14] was 90.1% and the viability, T/C [15] was 108%. For the same compound, the viability, T/C [16] was 108%, the viability, T/C [17] was 94.7% and the viability, T/C [18] was 97.3%. It also gave a viability, T/C [19] of 81.4%, a viability, T/C [20] of 98.1% and a viability, T/C [21] of 73.1%. For the same compound, the viability, T/C [22] was 85.6%, the viability, T/C [23] was 85% and the viability, T/C [24] was 93.2%. It also gave a viability, T/C [25] of 36.9%, a viability, T/C [26] of 37.9% and a viability, T/C [27] of 51.2%. The viability, T/C [28] was 46.7%, the viability, T/C [29] was 37.2% and the viability, T/C [30] was 48.5%. The viability, T/C [31] was 17.9%, the viability, T/C [32] was 21.1% and the viability, T/C [33] was 21.7%. For the same compound, the viability, T/C [34] was 20.7%, the viability, T/C [35] was 22.7% and the viability, T/C [36] was 20.9%.
With `CC(Cn1ccc(-c2ccc(C#N)c(Cl)c2)n1)NC(=O)c1cc(C(C)O)[nH]n1` (centres undefined) + COc1c(OCCCN2CCOCC2)ccc2c3n(c(=NC(=O)c4cnc(N)nc4)nc12)CCN3 the IC50 (second compound 0.00316 µM) was > 10 µM, the IC50 (second compound 0.01 µM) was > 10 µM and the IC50 (second compound 0.0316 µM) was > 10 µM. For the same compound, the IC50 (second compound 0.1 µM) was > 10 µM, the IC50 (second compound 0.316 µM) was < 0.0316 µM and the IC50 (second compound 1 µM) was < 0.0316 µM. The viability, T/C [1] was 85.6%, the viability, T/C [2] was 112% and the viability, T/C [3] was 124%. For the same compound, the viability, T/C [4] was 94.6%, the viability, T/C [5] was 92.2% and the viability, T/C [6] was 114%. It also gave a viability, T/C [7] of 91.3%, a viability, T/C [8] of 104% and a viability, T/C [9] of 117%. The viability, T/C [10] was 115%, the viability, T/C [11] was 105% and the viability, T/C [12] was 108%. For the same compound, the viability, T/C [13] was 90.7%, the viability, T/C [14] was 114% and the viability, T/C [15] was 113%. The viability, T/C [16] was 101%, the viability, T/C [17] was 108% and the viability, T/C [18] was 89.3%. The viability, T/C [19] was 79.4%, the viability, T/C [20] was 95% and the viability, T/C [21] was 81.5%. For the same compound, the viability, T/C [22] was 94.3%, the viability, T/C [23] was 84.8% and the viability, T/C [24] was 87%. The viability, T/C [25] was 40.8%, the viability, T/C [26] was 33.2% and the viability, T/C [27] was 49%. The viability, T/C [28] was 39.2%, the viability, T/C [29] was 42.5% and the viability, T/C [30] was 48.1%. It also gave a viability, T/C [31] of 21.3%, a viability, T/C [32] of 23.5% and a viability, T/C [33] of 22.9%. It also gave a viability, T/C [34] of 22%, a viability, T/C [35] of 24.3% and a viability, T/C [36] of 25.2%.
